The text below walks through data of patent US20250101041A1, “POSITIVE ALLOSTERIC MODULATORS OF THE MUSCARINIC ACETYLCHOLINE RECEPTOR M4” (Vanderbilt University, priority 2022, published 2025).

For orientation: Emax means the size of the effect at its maximum, as opposed to the concentration needed. By pEC50 is commonly meant the EC50 on a negative log10 scale, so that one unit is a factor of ten.

Structures are written as SMILES. pEC50: −log10 of the molar value.

For the assay, the target named is T1, human mAChR M4 (Homo sapiens, UniProt P08173).
T1 construct: expressed in transfected cells; host or cells: CHO-K1 (American Type Culture Collection), stably expressing hM4 and Gqi5
T1 sequence (P08173 1-479): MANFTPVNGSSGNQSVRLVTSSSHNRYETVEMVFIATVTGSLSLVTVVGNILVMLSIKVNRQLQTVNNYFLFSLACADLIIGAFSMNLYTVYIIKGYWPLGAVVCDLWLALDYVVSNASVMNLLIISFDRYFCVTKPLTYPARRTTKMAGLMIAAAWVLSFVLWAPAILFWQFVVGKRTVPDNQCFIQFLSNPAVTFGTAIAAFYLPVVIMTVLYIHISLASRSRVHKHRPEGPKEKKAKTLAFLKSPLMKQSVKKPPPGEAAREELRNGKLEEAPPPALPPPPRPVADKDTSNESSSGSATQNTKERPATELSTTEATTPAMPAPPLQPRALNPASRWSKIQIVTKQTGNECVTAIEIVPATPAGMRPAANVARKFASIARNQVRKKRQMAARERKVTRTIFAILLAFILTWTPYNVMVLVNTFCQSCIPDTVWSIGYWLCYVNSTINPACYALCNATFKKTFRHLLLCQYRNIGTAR
Description: mAChR M4 cell-based functional assay: calcium mobilization (Fluo-4, FDSS), potentiation of EC20 acetylcholine response in hM4-Gqi5 CHO-K1 cells. Set-up: Emax: dose or concentration left out as unconfirmed. Conditions: for Emax at 30 µM: CHO-K1, % ACh maximum at 30 μM; for Emax at 30 µM / pEC50: human M4; for pEC50: potentiation of EC20 acetylcholine response, calcium mobilization. An outline of the steps: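 Readout is the fluorescence-ratio rise at 1 Hz on FDSS, with PAM activity taken as concentration-dependent enhancement of the EC20 acetylcholine response, fitted four-parameter for EC50/Emax. hM4-Gqi5 CHO-K1 cells carried Fluo-4 AM dye; test compounds (11 points, 1:3) preceded EC20 acetylcholine additions at 144 s and 230 s.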
(A change in cytosolic calcium serves as a functional read-out for many receptors and channels.)

For the molecule `Cc1cc2nccc(=O)n2nc1N1CCc2ncc(-c3c(C)nn(C)c3C)cc2C1` [Compound 1-424, 8-methyl-7-(3-(1,3,5-trimethyl-1H-pyrazol-4-yl)-7,8-dihydro-1,6-naphthyridin-6(5H)-yl)-4H-pyrimido[1,2-b] pyridazin-4-one], the Emax at 30 µM was 84% and the negative-log EC50 (pEC50) is 6.13.
For `Cc1cc2nccc(=O)n2nc1N1CCc2ncc(-c3cccnc3C(F)F)cc2C1` [Compound 1-425, 7-(3-(2-(difluoromethyl)pyridin-3-yl)-7,8-dihydro-1,6-naphthyridin-6(5H)-yl)-8-methyl-4H-pyrimido[1,2-b]pyridazin-4-one], in that order: 79% and 6.08.
For `COc1ccc(-c2cnc3c(c2)CN(c2nn4c(=O)ccnc4cc2C)CC3)c(C)n1` [Compound 1-426, 7-(3-(6-methoxy-2-methylpyridin-3-yl)-7,8-dihydro-1,6-naphthyridin-6(5H)-yl)-8-methyl-4H-pyrimido[1,2-b]pyridazin-4-one], in that order: 84% and 6.46.
For `COc1nccc(-c2cnc3c(c2)CN(c2nn4c(=O)ccnc4cc2C)CC3)c1C` [Compound 1-427, 7-(3-(2-methoxy-3-methylpyridin-4-yl)-7,8-dihydro-1,6-naphthyridin-6(5H)-yl)-8-methyl-4H-pyrimido[1,2-b]pyridazin-4-one], in that order: 78% and 5.82.
As for `Cc1cc2nccc(=O)n2nc1N1CCc2ncc(-c3sc(C(=O)NC4CC4)cc3C)cc2C1` [Compound 1-428, N-cyclopropyl-4-methyl-5-(6-(8-methyl-4-oxo-4H-pyrimido[1,2-b]pyridazin-7-yl)-5,6,7,8-tetrahydro-1,6-naphthyridin-3-yl)thiophene-2-carboxamide], the maximal effect (Emax) at 30 µM was 80% and the negative logarithm of the EC50 (pEC50) was 6.45.
For the molecule `Cc1c(N2CCc3ncc(C4CCOCC4)cc3C2)nn2c(=O)ccnc2c1C` [Compound 1-429, 8,9-Dimethyl-7-(3-(tetrahydro-2H-pyran-4-yl)-7,8-dihydro-1,6-naphthyridin-6(5H)-yl)-4H-pyrimido[1,2-b]pyridazin-4-one], the Emax at 30 µM worked out at 91% and the pEC50 was 6.05.
For `Cc1c(N2CCc3ncc(C4CCCCC4)cc3C2)nn2c(=O)ccnc2c1C` [Compound 1-430, 7-(3-cyclohexyl-7,8-dihydro-1,6-naphthyridin-6(5H)-yl)-8,9-dimethyl-4H-pyrimido[1,2-b] pyridazin-4-one] the same measures were 75% and 7.02.
For `Cc1ccccc1-c1cnc2c(c1)CN(c1nn3c(=O)ccnc3cc1C)CC2` [Compound 1-431, 8-methyl-7-(3-(o-tolyl)-7,8-dihydro-1,6-naphthyridin-6(5H)-yl)-4H-pyrimido[1,2-b] pyridazin-4-one] the same measures were 96% and 6.89.
Take `Cc1ccc(F)cc1-c1cnc2c(c1)CN(c1nn3c(=O)ccnc3cc1C)CC2` [Compound 1-432, 7-(3-(5-fluoro-2-methylphenyl)-7,8-dihydro-1,6-naphthyridin-6(5H)-yl)-8-methyl-4H-pyrimido [1,2-b]pyridazin-4-one]: the Emax at 30 µM came to 80% and the negative logarithm of the EC50 (pEC50) is 7.20.
For `Cc1cc2nccc(=O)n2nc1N1CCc2ncc(-c3ccccc3C(C)(F)F)cc2C1` [Compound 1-433, 7-(3-(2-(1,1-difluoroethyl)phenyl)-7,8-dihydro-1,6-naphthyridin-6(5H)-yl)-8-methyl-4H-pyrimido[1,2-b]pyridazin-4-one] the same measures were 41% and 5.90.
For `Cc1cc2nccc(=O)n2nc1N1CCc2ncc(-c3ccccc3C(F)F)cc2C1` [Compound 1-434, 7-(3-(2-(difluoromethyl)phenyl)-7,8-dihydro-1,6-naphthyridin-6(5H)-yl)-8-methyl-4H-pyrimido[1,2-b]pyridazin-4-one] the same measures were 90% and 6.62.
Regarding `Cc1cc2nccc(=O)n2nc1N1CCc2ncc(-c3cccc4[nH]cc(C)c34)cc2C1` [Compound 1-435, 8-methyl-7-(3-(3-methyl-1H-indol-4-yl)-7,8-dihydro-1,6-naphthyridin-6(5H)-yl)-4H-pyrimido[1,2-b]pyridazin-4-one], the Emax at 30 µM amounted to 51% and the pEC50 was 5.70.
For `Cc1cc2nccc(=O)n2nc1N1CCc2ncc(-c3cccc4c3CCC4)cc2C1` [Compound 1-436, 7-(3-(2,3-dihydro-1H-inden-4-yl)-7,8-dihydro-1,6-naphthyridin-6(5H)-yl)-8-methyl-4H-pyrimido[1,2-b]pyridazin-4-one] the same measures were 78% and 6.32.
For `Cc1cc2nccc(=O)n2nc1N1CCc2ncc(-c3cccc(C#N)c3C)cc2C1` [Compound 1-437, 2-methyl-3-(6-(8-methyl-4-oxo-4H-pyrimido[1,2-b]pyridazin-7-yl)-5,6,7,8-tetrahydro-1,6-naphthyridin-3-yl)benzonitrile] the same measures were 70% and 6.00.
For `Cc1cc2nccc(=O)n2nc1N1CCc2ncc(-c3ccccc3C3(C#N)CC3)cc2C1` [Compound 1-438, 1-(2-(6-(8-methyl-4-oxo-4H-pyrimido[1,2-b]pyridazin-7-yl)-5,6,7,8-tetrahydro-1,6-naphthyridin-3-yl)phenyl)cyclopropane-1-carbonitrile] the same measures were 45% and 5.41.
As to `Cc1cc2nccc(=O)n2nc1N1CCc2ncc(-c3ccccc3C(C)C)cc2C1` [Compound 1-439, 7-(3-(2-isopropylphenyl)-7,8-dihydro-1,6-naphthyridin-6(5H)-yl)-8-methyl-4H-pyrimido [1,2-b]pyridazin-4-one], the Emax at 30 µM came to 22% and the negative-log EC50 (pEC50) was 5.91.
For `Cc1cc2nccc(=O)n2nc1N1CCc2ncc(-c3ccccc3C3CC3)cc2C1` [Compound 1-440, 7-(3-(2-cyclopropylphenyl)-7,8-dihydro-1,6-naphthyridin-6(5H)-yl)-8-methyl-4H-pyrimido [1,2-b]pyridazin-4-one], in that order: 56% and 6.42.
For `Cc1cc2nccc(=O)n2nc1N1CCc2ncc(-c3cccc(Cl)c3C)cc2C1` [Compound 1-441, 7-(3-(3-chloro-2-methylphenyl)-7,8-dihydro-1,6-naphthyridin-6(5H)-yl)-8-methyl-4H-pyrimido[1,2-b]pyridazin-4-one], in that order: 78% and 6.22.
On to `Cc1cc2nccc(=O)n2nc1N1CCc2ncc(-c3cccc(C)c3C)cc2C1` [Compound 1-442, 7-(3-(2,3-dimethylphenyl)-7,8-dihydro-1,6-naphthyridin-6(5H)-yl)-8-methyl-4H-pyrimido [1,2-b]pyridazin-4-one], for which the maximal effect (Emax) at 30 µM stood at 86% and the pEC50 is 6.39.
For `Cc1cc(F)ccc1-c1cnc2c(c1)CN(c1nn3c(=O)ccnc3cc1C)CC2` [Compound 1-443, 7-(3-(4-fluoro-2-methylphenyl)-7,8-dihydro-1,6-naphthyridin-6(5H)-yl)-8-methyl-4H-pyrimido [1,2-b]pyridazin-4-one], in that order: 99% and 6.68.
On to `COc1c(F)cc(-c2cnc3c(c2)CN(c2nn4c(=O)ccnc4cc2C)CC3)c(C)c1F` [Compound 1-444, 7-(3-(3,5-difluoro-4-methoxy-2-methylphenyl)-7,8-dihydro-1,6-naphthyridin-6(5H)-yl)-8-methyl-4H-pyrimido [1,2-b]pyridazin-4-one], for which the Emax at 30 µM is 93% and the negative logarithm of the EC50 (pEC50) was 6.88.
For `Cc1cc(F)c(F)cc1-c1cnc2c(c1)CN(c1nn3c(=O)ccnc3cc1C)CC2` [Compound 1-445, 7-(3-(4,5-difluoro-2-methylphenyl)-7,8-dihydro-1,6-naphthyridin-6(5H)-yl)-8-methyl-4H-pyrimido[1,2-b]pyridazin-4-one] the same measures were 85% and 7.11.
As to `Cc1cc(F)c(F)cc1-c1cnc2c(c1)CN(c1nn3c(=O)ccnc3c(C)c1C)CC2` [Compound 1-446, 7-(3-(4,5-difluoro-2-methylphenyl)-7,8-dihydro-1,6-naphthyridin-6(5H)-yl)-8,9-dimethyl-4H-pyrimido[1,2-b]pyridazin-4-one], the Emax at 30 µM is 85% and the pEC50 is 6.24.
On to `Cc1cc2nccc(=O)n2nc1N1CCc2ncc(-c3cc(F)cc(F)c3C)cc2C1` [Compound 1-447, 7-(3-(3,5-difluoro-2-methylphenyl)-7,8-dihydro-1,6-naphthyridin-6(5H)-yl)-8-methyl-4H-pyrimido [1,2-b]pyridazin-4-one], for which the Emax at 30 µM was 83% and the pEC50 was 6.72.
On to `Cc1ccc2c(n1)CCN(c1nn3c(=O)ccnc3cc1C)C2` [Compound 1-448, 8-methyl-7-(2-methyl-7,8-dihydro-1,6-naphthyridin-6(5H)-yl)-4H-pyrimido[1,2-b] pyridazin-4-one], for which the negative-log EC50 (pEC50) was 5.64. For the same molecule, the Emax (CHO-K1) was 66%.
